Patent US20230079819A1, “COMPOUNDS AND USES THEREOF” (Foghorn Therapeutics Inc., priority 2019, published 2023)
Like-named read-outs stand apart in the source and are kept apart here.

Experiments:
BRG-1 = target: T1, BRG-1 (Homo sapiens, UniProt P51532); test: ATPase catalytic activity of BRG-1, ADP-Glo in vitro biochemical assay; details: 30 nM BRG-1, 400 μM ATP
T1 construct: made in house; host or cells: High Five insect cells

BRM = target: T2, BRM (Homo sapiens, UniProt P51531); test: ATPase catalytic activity of BRM, ADP-Glo in vitro biochemical assay; details: 30 nM BRM, 400 μM ATP
T2 construct: made in house; host or cells: High Five insect cells
T2 sequence (P51531 whole entry): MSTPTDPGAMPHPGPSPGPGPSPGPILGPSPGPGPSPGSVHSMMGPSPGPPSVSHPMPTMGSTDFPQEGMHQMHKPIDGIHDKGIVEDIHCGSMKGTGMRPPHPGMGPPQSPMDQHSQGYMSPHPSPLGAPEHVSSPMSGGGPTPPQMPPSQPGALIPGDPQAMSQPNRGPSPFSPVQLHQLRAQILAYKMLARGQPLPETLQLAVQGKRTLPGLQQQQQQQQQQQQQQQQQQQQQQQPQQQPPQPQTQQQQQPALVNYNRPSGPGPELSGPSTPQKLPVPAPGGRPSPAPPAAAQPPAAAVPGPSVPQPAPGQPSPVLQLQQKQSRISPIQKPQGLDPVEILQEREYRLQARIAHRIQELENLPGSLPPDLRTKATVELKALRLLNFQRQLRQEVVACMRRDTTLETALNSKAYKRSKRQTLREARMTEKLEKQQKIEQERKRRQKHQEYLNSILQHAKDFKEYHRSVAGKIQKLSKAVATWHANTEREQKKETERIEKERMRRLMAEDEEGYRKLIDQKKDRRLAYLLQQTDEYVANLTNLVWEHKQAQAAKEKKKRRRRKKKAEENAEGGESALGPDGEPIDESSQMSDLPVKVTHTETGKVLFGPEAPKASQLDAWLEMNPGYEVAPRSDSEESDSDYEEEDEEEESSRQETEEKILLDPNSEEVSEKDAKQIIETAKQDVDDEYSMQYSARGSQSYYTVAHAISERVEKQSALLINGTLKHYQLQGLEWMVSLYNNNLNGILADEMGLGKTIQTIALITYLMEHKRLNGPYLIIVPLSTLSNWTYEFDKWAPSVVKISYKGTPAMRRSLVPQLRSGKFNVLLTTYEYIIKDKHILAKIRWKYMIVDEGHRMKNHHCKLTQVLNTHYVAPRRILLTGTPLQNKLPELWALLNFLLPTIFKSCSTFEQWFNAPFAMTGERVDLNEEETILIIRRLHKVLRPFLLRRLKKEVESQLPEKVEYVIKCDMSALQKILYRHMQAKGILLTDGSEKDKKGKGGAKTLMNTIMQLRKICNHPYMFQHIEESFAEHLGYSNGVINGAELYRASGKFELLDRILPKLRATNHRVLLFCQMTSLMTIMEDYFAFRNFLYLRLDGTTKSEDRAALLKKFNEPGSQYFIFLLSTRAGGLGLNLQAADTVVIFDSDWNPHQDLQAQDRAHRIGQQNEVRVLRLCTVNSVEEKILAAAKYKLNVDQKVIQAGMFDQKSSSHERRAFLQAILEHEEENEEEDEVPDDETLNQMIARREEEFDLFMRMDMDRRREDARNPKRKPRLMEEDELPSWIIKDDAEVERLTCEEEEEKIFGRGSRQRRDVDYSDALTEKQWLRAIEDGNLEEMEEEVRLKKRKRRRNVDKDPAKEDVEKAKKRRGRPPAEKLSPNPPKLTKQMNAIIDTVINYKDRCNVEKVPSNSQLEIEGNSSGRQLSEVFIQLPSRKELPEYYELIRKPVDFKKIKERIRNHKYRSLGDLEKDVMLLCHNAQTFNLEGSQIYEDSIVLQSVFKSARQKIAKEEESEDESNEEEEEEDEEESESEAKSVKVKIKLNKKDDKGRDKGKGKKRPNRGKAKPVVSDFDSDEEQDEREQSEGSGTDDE

[1] = ATPase catalytic activity, read-out: BRG1 IP50
[2] = ATPase catalytic activity, read-out: BRM IP50
[3] = ATPase catalytic activity, read-out: BRG1 IP50 (μM)*
[4] = ATPase catalytic activity, read-out: BRM IP50 (μM)*

T1 sequence (P51532 whole entry): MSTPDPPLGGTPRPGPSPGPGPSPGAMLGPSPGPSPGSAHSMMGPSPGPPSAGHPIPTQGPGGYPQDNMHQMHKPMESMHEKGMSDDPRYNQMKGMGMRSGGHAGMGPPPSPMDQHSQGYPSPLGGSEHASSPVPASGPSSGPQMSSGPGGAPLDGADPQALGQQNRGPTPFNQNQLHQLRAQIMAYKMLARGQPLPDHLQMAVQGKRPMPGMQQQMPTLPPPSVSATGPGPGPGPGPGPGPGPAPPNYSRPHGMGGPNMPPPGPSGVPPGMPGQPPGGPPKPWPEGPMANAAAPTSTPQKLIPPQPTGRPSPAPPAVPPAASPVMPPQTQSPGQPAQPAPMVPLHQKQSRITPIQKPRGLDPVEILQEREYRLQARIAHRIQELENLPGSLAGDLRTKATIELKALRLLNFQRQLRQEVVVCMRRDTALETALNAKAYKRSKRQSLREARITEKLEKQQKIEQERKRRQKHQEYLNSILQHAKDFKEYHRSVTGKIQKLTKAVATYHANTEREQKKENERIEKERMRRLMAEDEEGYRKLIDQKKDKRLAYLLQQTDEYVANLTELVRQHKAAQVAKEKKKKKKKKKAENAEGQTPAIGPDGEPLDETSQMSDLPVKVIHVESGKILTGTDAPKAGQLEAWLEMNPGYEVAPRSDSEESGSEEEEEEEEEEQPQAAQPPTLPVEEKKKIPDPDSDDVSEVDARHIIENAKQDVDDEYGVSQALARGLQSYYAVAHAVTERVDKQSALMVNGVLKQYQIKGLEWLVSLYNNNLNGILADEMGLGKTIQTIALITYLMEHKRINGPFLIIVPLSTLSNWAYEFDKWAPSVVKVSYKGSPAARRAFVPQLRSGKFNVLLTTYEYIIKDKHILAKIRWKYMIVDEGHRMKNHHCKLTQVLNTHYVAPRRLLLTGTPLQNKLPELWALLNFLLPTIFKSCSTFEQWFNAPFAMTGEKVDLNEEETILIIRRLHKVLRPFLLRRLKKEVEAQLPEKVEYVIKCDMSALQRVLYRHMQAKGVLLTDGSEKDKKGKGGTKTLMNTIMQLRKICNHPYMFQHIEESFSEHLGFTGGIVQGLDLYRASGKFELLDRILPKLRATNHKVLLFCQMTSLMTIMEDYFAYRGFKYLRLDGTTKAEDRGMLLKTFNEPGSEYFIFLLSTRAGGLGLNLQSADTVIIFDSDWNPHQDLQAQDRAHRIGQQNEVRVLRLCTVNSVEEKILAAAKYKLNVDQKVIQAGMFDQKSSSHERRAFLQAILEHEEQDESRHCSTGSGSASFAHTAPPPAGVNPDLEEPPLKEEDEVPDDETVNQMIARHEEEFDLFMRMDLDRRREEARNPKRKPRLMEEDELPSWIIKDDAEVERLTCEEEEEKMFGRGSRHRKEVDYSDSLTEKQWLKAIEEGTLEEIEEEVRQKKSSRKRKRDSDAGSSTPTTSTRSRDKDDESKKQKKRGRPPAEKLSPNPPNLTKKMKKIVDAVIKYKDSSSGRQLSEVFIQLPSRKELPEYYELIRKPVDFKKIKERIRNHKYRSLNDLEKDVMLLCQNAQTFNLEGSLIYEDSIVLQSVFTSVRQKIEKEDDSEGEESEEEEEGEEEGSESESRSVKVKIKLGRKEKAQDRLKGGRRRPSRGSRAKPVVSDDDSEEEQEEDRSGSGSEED

IC50 (BRG-1; [1]) [µM] | IC50 (BRM; [2]) [µM] | IC50 (BRG-1; [3]) [µM] | IC50 (BRM; [4]) [µM] | Structure (SMILES) | other results
> 0.1 | > 0.01 |  |  | C[C@@H]1CN(c2cccc(-c3csc(NC(=O)CNC(=O)c4ccn([C@]5(C)CCOC5)c4)n3)n2)C[C@H](C)O1 (single isomer, unassigned) [Compound 490] | 
> 0.1 | > 0.01 |  |  | CS(=O)(=O)n1ccc(C(=O)NCC(=O)Nc2nc(-c3cccc([C@@H]4CC4(F)F)n3)cs2)c1 [Compound 608] | 
< 0.01 | < 0.01 |  |  | CS(=O)(=O)n1ccc(C(=O)NCC(=O)Nc2nc(-c3cccc(-c4ccnc(Cl)n4)c3)cs2)c1 [Compound 410] | 
> 0.1 | > 0.01 |  |  | CC(C)(C)n1ccc(C(=O)NCC(=O)Nc2nc(-c3cccc(N4CC[C@@H]5CCO[C@H]5C4)n3)cs2)c1 (racemic) [Compound 650] | 
> 0.01 | > 0.01 |  |  | CC(C)(C)n1ccc(C(=O)NCC(=O)Nc2nc(-c3cccc(N4CCCC5(CCO5)C4)n3)cs2)c1 (stereo not drawn) [Compound 668] | 
 |  | > 0.01 | > 0.01 | CS(=O)(=O)n1ccc(C(=O)NCC(=O)Nc2nc(-c3cccc(OCC4COC4)c3)cs2)c1 [Compound 110, 1-(methylsulfonyl)-N-(2-((4-(3-(oxetan-3-ylmethoxy)phenyl)thiazol-2-yl)amino)-2-oxoethyl)-1H-pyrrole-3-carboxamide] | 
< 0.01 | < 0.01 |  |  | CC(C)(C)n1ccc(C(=O)NCC(=O)Nc2nc(-c3cccc(N4CC[C@H]5COC[C@@H]5C4)n3)cs2)c1 [Compound 662] | 
 |  | > 0.01 | < 0.01 | CC1(C)CN(c2cccc(-c3csc(NC(=O)CNC(=O)c4ccn(S(C)(=O)=O)c4)n3)c2)CC[C@H]1O [Compound 164] | 
> 0.1 | > 0.01 |  |  | CCO[C@H](NC(=O)c1ccn(S(C)(=O)=O)c1)C(=O)Nc1nc(-c2cccc([C@H]3CC3(F)F)n2)cs1 [Compound 606] | 
> 0.01 | > 0.01 |  |  | CC(C)(O)C#Cc1cccc(-c2csc(NC(=O)CNC(=O)c3ccn(S(C)(=O)=O)c3)n2)c1 [Compound 426] | 
> 0.01 | > 0.01 |  |  | CC(C)(C)n1ccc(C(=O)NCC(=O)Nc2nc(-c3cccc(N4CCCC5(CCOCC5)C4)n3)cs2)c1 [Compound 645] | 
< 0.01 | < 0.01 |  |  | C[C@@H]1CN(c2cccc(-c3csc(NC(=O)CNC(=O)c4ccn(C5(CF)COC5)c4)n3)n2)C[C@H](C)O1 [Compound 736] | 
 |  | > 0.01 | > 0.01 | CS(=O)(=O)n1ccc(C(=O)NCC(=O)Nc2nc(-c3cccc(C4CCC4)c3)cs2)c1 [Compound 298] | 
 |  | > 0.1 | > 0.1 | CC(C)(O)c1cccc(-c2csc(NC(=O)CNC(=O)c3ccn(S(C)(=O)=O)c3)n2)c1 [Compound 139, N-(2-((4-(3-(2-hydroxypropan-2-yl)phenyl)thiazol-2-yl)amino)-2-oxoethyl)-1-(methylsulfonyl)-1H-pyrrole-3-carboxamide] | 
 |  | > 0.01 | > 0.01 | CS(=O)(=O)n1ccc(C(=O)NCC(=O)Nc2nc(-c3cc(Cl)cc(OC4CC4)c3)cs2)c1 [Compound 260] | 
< 0.01 | < 0.01 |  |  | C[C@@H]1CC(c2cccc(-c3csc(NC(=O)CNC(=O)c4ccn(S(C)(=O)=O)c4)n3)c2)=C[C@H](C)O1 (racemic) [Compound 391] | 
 |  | > 0.01 | < 0.01 | CN(C)c1cccc(-c2csc(NC(=O)CNC(=O)c3ccn(S(C)(=O)=O)c3)n2)c1 [Compound 287] | 
 |  | > 0.01 | > 0.01 | COCCN1CCc2ccc(-c3csc(NC(=O)CNC(=O)c4ccn(S(C)(=O)=O)c4)n3)cc21 [Compound 250] | 
 |  | > 0.01 | > 0.01 | C[C@H]1CCCN(c2cccc(-c3csc(NC(=O)CNC(=O)c4ccn(S(C)(=O)=O)c4)n3)n2)C1 [Compound 340] | 
 |  | > 0.01 | < 0.01 | COC[C@@H]1CCN(c2cccc(-c3csc(NC(=O)CNC(=O)c4ccn(S(C)(=O)=O)c4)n3)c2)C1 [Compound 201] | 
< 0.01 | < 0.01 |  |  | Cc1nccc(-c2cccc(-c3csc(NC(=O)CNC(=O)c4ccn(S(C)(=O)=O)c4)n3)c2)n1 [Compound 416] | 
> 0.1 | > 0.1 |  |  | Cn1ccc(C2CCN(c3cccc(-c4csc(NC(=O)CNC(=O)c5ccn(C(C)(C)C)c5)n4)n3)CC2)n1 [Compound 696] | 
 |  | > 0.01 | < 0.01 | CS(=O)(=O)n1ccc(C(=O)NCC(=O)Nc2nc(-c3cccc(N4CCC[C@H](C#N)C4)c3)cs2)c1 [Compound 197] | 

More lines, now with the values behind:

Structure (SMILES) | IC50 (BRG-1; [1]) [µM] | IC50 (BRM; [2]) [µM] | IC50 (BRG-1; [3]) [µM] | IC50 (BRM; [4]) [µM] | other results
N#CC1(n2ccc(C(=O)NCC(=O)Nc3nc(-c4cccc(OC(F)(F)F)c4)cs3)n2)CC1 [Compound 794] |  |  |  |  | IC50 (BRG-1; read-out: BRG1 IP50): > 0.1 µM; IC50 (BRM; read-out: BRM IP50): > 0.1 µM
CS(=O)(=O)n1ccc(C(=O)NCC(=O)Nc2nc(-c3cccc(C(=O)Nc4ccncc4)c3)cs2)c1 [Compound 117, 1-(methylsulfonyl)-N-(2-oxo-2-((4-(3-(pyridin-4-ylcarbamoyl)phenyl)thiazol-2-yl)amino)ethyl)-1H-pyrrole-3-carboxamide] |  |  | > 0.01 | > 0.01 | 
CC(C)(C)n1ccc(C(=O)NCC(=O)Nc2nc(-c3cccc(-c4ccncn4)c3)cs2)c1 [Compound 84, 1-(tert-butyl)-N-(2-oxo-2-((4-(3-(pyrimidin-4-yl)phenyl)thiazol-2-yl)amino)ethyl)-1H-pyrrole-3-carboxamide] |  |  | > 0.01 | < 0.01 | 
CC1(n2ccc(C(=O)NCC(=O)Nc3nc(-c4cc(F)cc(N5CCC5)c4)cs3)c2)COC1 [Compound 519] | > 0.01 | > 0.01 |  |  | 
CS(=O)(=O)n1ccc(C(=O)NCC(=O)Nc2nc(-c3cc(F)c4c(c3)CCO4)cs2)c1 [Compound 544] | < 0.01 | < 0.01 |  |  | 
C[C@@H]1CN(c2cccc(-c3csc(NC(=O)CNC(=O)c4ccn(C5(C#N)CC5)n4)n3)n2)C[C@H](C)O1 [Compound 806] |  |  |  |  | IC50 (BRG-1; read-out: BRG1 IP50): > 0.01 µM; IC50 (BRM; read-out: BRM IP50): > 0.01 µM
COC[C@H](NC(=O)c1ccn(S(C)(=O)=O)c1)C(=O)Nc1nc(-c2ccc(F)c(OC)c2)cs1 [Compound 716] | > 0.01 | > 0.01 |  |  | 
C[C@@H]1CN(c2cccc(-c3csc(NC(=O)CNC(=O)c4ccn(C5(C)COC5)c4)n3)c2)C[C@H](C)O1 [Compound 235] |  |  | > 0.01 | > 0.01 | 
C[C@H](NC(=O)c1cn(C2(C)COC2)cn1)C(=O)Nc1nc(-c2ccc3ccn(C)c(=O)c3c2)cs1 [Compound 801] |  |  |  |  | IC50 (BRG-1; read-out: BRG1 IP50): > 0.1 µM; IC50 (BRM; read-out: BRM IP50): > 0.1 µM
Cn1ccc(-c2cccc(-c3csc(NC(=O)CNC(=O)c4ccn(C(C)(C)C)c4)n3)c2)n1 [Compound 58, 1-(tert-butyl)-N-(2-((4-(3-(1-methyl-1H-pyrazol-3-yl)phenyl)thiazol-2-yl)amino)-2-oxoethyl)-1H-pyrrole-3-carboxamide] |  |  | > 0.01 | > 0.01 | 
COc1ccncc1-c1cccc(-c2csc(NC(=O)CNC(=O)c3ccn(C4(C)COC4)c3)n2)n1 [Compound 262, N-[2-[[4-[6-(4-methoxy-3-pyridyl)-2-pyridyl]thiazol-2-yl]amino]-2-oxo-ethyl]-1-(3-methyloxetan-3-yl)pyrrole-3-carboxamide] |  |  | > 0.01 | > 0.01 | 
COC[C@H](NC(=O)c1ccn(C(C)(C)C)c1)C(=O)Nc1nc(-c2ccc3ccn(C4COC4)c(=O)c3c2)cs1 [Compound 603] | < 0.01 | < 0.01 |  |  | 
CC(C)(C)n1ccc(C(=O)NCC(=O)Nc2nc(-c3cccc(CO[C@@H]4CCOC4)c3)cs2)c1 [Compound 136, (R)-1-(tert-butyl)-N-(2-oxo-2-((4-(3-(((tetrahydrofuran-3-yl)oxy)methyl)phenyl)thiazol-2-yl)amino)ethyl)-1H-pyrrole-3-carboxamide] |  |  | > 0.01 | > 0.01 | 
CC(C)(C)C[C@H](NC(=O)c1ccn(S(C)(=O)=O)c1)C(=O)Nc1nc(-c2cccc(-c3ccncc3)c2)cs1 [Compound 76, (S)—N-(4,4-dimethyl-1-oxo-1-((4-(3-(pyridin-4-yl)phenyl)thiazol-2-yl)amino)pentan-2-yl)-1-(methylsulfonyl)-1H-pyrrole-3-carboxamide] |  |  | > 0.01 | > 0.01 | 
CS(=O)(=O)n1ccc(C(=O)NCC(=O)Nc2nc(-c3cccc(-c4ccn(CC(=O)O)n4)c3)cs2)c1 [Compound 218] |  |  | > 0.01 | > 0.01 | 
C[C@]1(n2ccc(C(=O)NCC(=O)Nc3nc(-c4cccc(N5CCC5)c4)cs3)c2)CCOC1 [Compound 506] | > 0.1 | > 0.01 |  |  | 
COC[C@H](NC(=O)c1ccn(S(C)(=O)=O)c1)C(=O)Nc1nc(-c2cc(F)cc(OC3CC3)c2)cs1 [Compound 610] | > 0.01 | > 0.01 |  |  | 
COC[C@H](NC(=O)c1ccn(C(C)(C)C#N)c1)C(=O)Nc1nc(-c2cc(C)cc(N3C[C@@H](C)O[C@@H](C)C3)n2)cs1 [Compound 740] | < 0.01 | < 0.01 |  |  | 
CN1CCC(OCc2cccc(-c3csc(NC(=O)CNC(=O)c4ccn(C(C)(C)C)c4)n3)c2)CC1 [Compound 127, 1-(tert-butyl)-N-(2-((4-(3-(((1-methylpiperidin-4-yl)oxy)methyl)phenyl)thiazol-2-yl)amino)-2-oxoethyl)-1H-pyrrole-3-carboxamide] |  |  | > 0.1 | > 0.1 | 
CC1(n2ccc(C(=O)NCC(=O)Nc3nc(-c4ccnc(N5CCC(O)CC5)n4)cs3)c2)COC1 [Compound 321] |  |  | > 0.1 | > 0.01 | 
C[C@@H]1CN(c2cccc(-c3csc(NC(=O)[C@H](CO)NC(=O)c4ccn(C5(C)COC5)c4)n3)n2)C[C@H](C)O1 [Compound 375] |  |  | > 0.01 | > 0.01 | 
CN(C)CCNc1cc(-c2cccc(-c3csc(NC(=O)CNC(=O)c4ccn(S(C)(=O)=O)c4)n3)c2)ccn1 [Compound 20, N-(2-((4-(3-(2-((2-(dimethylamino)ethyl)amino)pyridin-4-yl)phenyl)thiazol-2-yl)amino)-2-oxoethyl)-1-(methylsulfonyl)-1H-pyrrole-3-carboxamide] |  |  | > 0.01 | > 0.01 | 
